Some test systems named below: HCC-2998 colon; OVCAR-8 ovarian; HL-60(TB) leukemia; MCF7 breast; A498 renal; UACC-62 melanoma; SK-MEL-5 melanoma; NCI-H23 lung; NCI-H460 lung; NCI-H522 lung.
What all share (test): NCI tumour cell line growth inhibition, 48 h

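Values below derive from 48-hour exposures of cells grown in 96-well plates, with endpoints linearly interpolated between the two concentrations bracketing the appropriate inhibition level. At the GI50, growth is halved. TGI is the concentration that stops growth completely.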

This passage reports GI50 and TGI results from PubChem BioAssay (NCI).

Turning to `CN1CCN(Cc2ccc(NC(=O)c3[nH]ncc3Nc3cc(OC4CCCC4)ncn3)cc2)CC1`, the GI50 in the assay with HCC-2998 colon was 3.1 µM; in the assay on OVCAR-8 ovarian, 4.95 µM; in the assay with HL-60(TB) leukemia it was 1.77 µM; in the assay with MCF7 breast it was 1.59 µM; in the assay with A498 renal, 6.37 µM; with UACC-62 melanoma it was 3.44 µM. Moreover, the GI50 in the assay with SK-MEL-5 melanoma is 1.44 µM; with NCI-H23 lung, 3.07 µM; with NCI-H460 lung, 1.61 µM; in the assay on NCI-H522 lung it was 2.15 µM. Besides, the TGI with HCC-2998 colon came out at 10.5 µM; in the assay with OVCAR-8 ovarian, 26.9 µM; in the assay on HL-60(TB) leukemia it was 4.3 µM; with MCF7 breast, 4.96 µM; in the assay on A498 renal it was 19.4 µM; in the assay on UACC-62 melanoma, 11.1 µM. For the same molecule, the TGI worked out at 4.07 µM with SK-MEL-5 melanoma, 14.4 µM in the assay with NCI-H23 lung, 5.97 µM in the assay with NCI-H460 lung and 7.91 µM with NCI-H522 lung.
